Data from US8680290B2, “Isoxazoline derivatives and their use as herbicides” (Syngenta Limited, priority 2004, dated 2014).
Blank lines part the entries; values can stand above or below the compound they belong to.

Legend:
[1] = tested on: Monocotyledonous and dicotyledonous test plants; assay: Example B2 herbicidal action, application pre-emergence, 96-cell seed trays (Table B2b); type: in vivo; details: 1000 g/ha
Procedure: Monocotyledonous and dicotyledonous test plants were sown in sterilised standard soil in seed trays each having 96 cells. After one day (pre-emergence) or after 8 to 9 days cultivation (post-emergence) under controlled conditions in a climatic chamber (cultivation at 17/23° C.; 13 hours light; 50-60% humidity; after application at 19/24° C.), the plants were treated with an aqueous spray solution of 1000 mg/l of the active ingredient used (rate of application: […]; incl. 10% DMSO as solvent). The plants were grown on in the climatic chamber until the test was evaluated (10 total damage to plant, 0=no damage to plant) after 9 or 13 days.

[2] = tested on: Monocotyledonous and dicotyledonous test plants; assay: Example B1 herbicidal action, application pre-emergence (Table B1b); type: in vivo; details: 250 g/ha, evaluated after 4 weeks
Method in brief: (§1)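 Compounds sprayed as aqueous solution from acetone/Emulsogen EL/NMP/dipropylene glycol monomethyl ether/X-77 formulation onto soil right after sowing (pre-emergence) or onto 8–9-day plants (post-emergence); greenhouse-grown. Damage scored 0 (none) to 10 (total) after 4 weeks pre- or 3 weeks post-emergence.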

[3] = tested on: Monocotyledonous and dicotyledonous test plants; assay: Example B1 herbicidal action, application post-emergence (Table B1a); type: in vivo; details: 250 g/ha, evaluated after 3 weeks, scale 0-10
Method in brief: as §1

SMILES: CC1(C)CC([S+]([O-])C(Cl)c2c(F)cccc2F)=NO1 (mixture of isomers) [1.24]
herbicidal action (damage rating 0-10), Agrostis [1]: 10 | herbicidal action (damage rating 0-10), Digitaria [1]: 10 | herbicidal action (damage rating 0-10), Poa [1]: 10 | herbicidal action (damage rating 0-10), Setaria [1]: 9 | herbicidal action (damage rating 0-10), Amaranthus [2]: 8 | herbicidal action (damage rating 0-10), Digitaria [2]: 8 | herbicidal action (damage rating 0-10), Panicum [2]: 10 | herbicidal action (damage rating 0-10), Setaria [2]: 7 | herbicidal action (damage rating 0-10), Sida [2]: 4 | herbicidal damage rating, Digitaria [3]: 6 | herbicidal damage rating, Panicum [3]: 6 | herbicidal damage rating, Setaria [3]: 6

SMILES: CC1(C)CC(S(=O)(=O)C(C)(Cl)c2c(F)cccc2F)=NO1 (centres unmarked) [1.15]
herbicidal action (damage rating 0-10), Agrostis [1]: 2 | herbicidal action (damage rating 0-10), Digitaria [1]: 9 | herbicidal action (damage rating 0-10), Poa [1]: 10 | herbicidal action (damage rating 0-10), Setaria [1]: 9 | herbicidal action (damage rating 0-10), Amaranthus [2]: 10 | herbicidal action (damage rating 0-10), Digitaria [2]: 9 | herbicidal action (damage rating 0-10), Panicum [2]: 10 | herbicidal action (damage rating 0-10), Setaria [2]: 8 | herbicidal action (damage rating 0-10), Sida [2]: 0

SMILES: CC1(C)CC(S(=O)(=O)C(F)(F)c2c(F)cccc2F)=NO1 [1.20]
herbicidal action (damage rating 0-10), Agrostis [1]: 10 | herbicidal action (damage rating 0-10), Digitaria [1]: 10 | herbicidal action (damage rating 0-10), Poa [1]: 10 | herbicidal action (damage rating 0-10), Setaria [1]: 10 | herbicidal action (damage rating 0-10), Amaranthus [2]: 10 | herbicidal action (damage rating 0-10), Digitaria [2]: 10 | herbicidal action (damage rating 0-10), Panicum [2]: 10 | herbicidal action (damage rating 0-10), Setaria [2]: 10 | herbicidal action (damage rating 0-10), Sida [2]: 9 | herbicidal damage rating, Abutilon [3]: 7 | herbicidal damage rating, Amaranthus [3]: 3 | herbicidal damage rating, Digitaria [3]: 6 | herbicidal damage rating, Panicum [3]: 0 | herbicidal damage rating, Setaria [3]: 6 | herbicidal damage rating, Sida [3]: 5

SMILES: Cc1cccc(C(CC=C(F)F)S(=O)(=O)C2=NOC(C)(C)C2)c1 (centres unmarked) [1.29]
herbicidal action (damage rating 0-10), Agrostis [1]: 10 | herbicidal action (damage rating 0-10), Digitaria [1]: 9 | herbicidal action (damage rating 0-10), Poa [1]: 8 | herbicidal action (damage rating 0-10), Setaria [1]: 4 | herbicidal action (damage rating 0-10), Amaranthus [2]: 2 | herbicidal action (damage rating 0-10), Digitaria [2]: 3 | herbicidal action (damage rating 0-10), Panicum [2]: 7 | herbicidal action (damage rating 0-10), Setaria [2]: 7 | herbicidal action (damage rating 0-10), Sida [2]: 0

SMILES: CC1(C)CC(S(=O)(=O)C(C)(Br)c2c(F)cccc2F)=NO1 (centres unmarked) [1.37]
herbicidal action (damage rating 0-10), Agrostis [1]: 10 | herbicidal action (damage rating 0-10), Digitaria [1]: 9 | herbicidal action (damage rating 0-10), Poa [1]: 10 | herbicidal action (damage rating 0-10), Setaria [1]: 9 | herbicidal action (damage rating 0-10), Amaranthus [2]: 0 | herbicidal action (damage rating 0-10), Digitaria [2]: 9 | herbicidal action (damage rating 0-10), Panicum [2]: 9 | herbicidal action (damage rating 0-10), Setaria [2]: 9 | herbicidal action (damage rating 0-10), Sida [2]: 5

SMILES: CC1(C)CC(S(=O)(=O)C(c2c(F)cccc2F)S(=O)(=O)Cc2ccccc2)=NO1 (centres unmarked) [1.39]
herbicidal action (damage rating 0-10), Agrostis [1]: 10 | herbicidal action (damage rating 0-10), Digitaria [1]: 5 | herbicidal action (damage rating 0-10), Poa [1]: 10 | herbicidal action (damage rating 0-10), Setaria [1]: 3 | herbicidal action (damage rating 0-10), Amaranthus [2]: 3 | herbicidal action (damage rating 0-10), Digitaria [2]: 7 | herbicidal action (damage rating 0-10), Panicum [2]: 7 | herbicidal action (damage rating 0-10), Setaria [2]: 3 | herbicidal action (damage rating 0-10), Sida [2]: 0

SMILES: CC1(C)CC(S(=O)(=O)C2(c3c(F)cccc3F)CC2[N+](=O)[O-])=NO1 (centres unmarked) [1.48]
herbicidal action (damage rating 0-10), Agrostis [1]: 10 | herbicidal action (damage rating 0-10), Digitaria [1]: 9 | herbicidal action (damage rating 0-10), Poa [1]: 10 | herbicidal action (damage rating 0-10), Setaria [1]: 8

SMILES: COCC(=O)OC(COC)=C(c1c(F)cccc1F)S(=O)(=O)C1=NOC(C)(C)C1 [1.100]
herbicidal action (damage rating 0-10), Agrostis [1]: 5 | herbicidal action (damage rating 0-10), Digitaria [1]: 7 | herbicidal action (damage rating 0-10), Poa [1]: 9 | herbicidal action (damage rating 0-10), Setaria [1]: 3

SMILES: Cn1nc(C(F)(F)F)c(C(F)S(=O)(=O)C2=NOC(C)(C)C2)c1Cl (centres unmarked) [2.02]
herbicidal action (damage rating 0-10), Agrostis [1]: 10 | herbicidal action (damage rating 0-10), Digitaria [1]: 9 | herbicidal action (damage rating 0-10), Poa [1]: 10 | herbicidal action (damage rating 0-10), Setaria [1]: 10

SMILES: CC1(C)CC(S(=O)(=O)C2(c3c(F)cccc3F)CC2)=NO1 [Compound No. 1.01, 3-[1-(2,6-difluoro-phenyl)-cyclopropanesulfonyl]-5,5-dimethyl-4,5-dihydroisoxazole]
herbicidal action (damage rating 0-10), Agrostis [1]: 10 | herbicidal action (damage rating 0-10), Digitaria [1]: 9 | herbicidal action (damage rating 0-10), Poa [1]: 10 | herbicidal action (damage rating 0-10), Setaria [1]: 9 | herbicidal action (damage rating 0-10), Amaranthus [2]: 2 | herbicidal action (damage rating 0-10), Digitaria [2]: 7 | herbicidal action (damage rating 0-10), Panicum [2]: 8 | herbicidal action (damage rating 0-10), Setaria [2]: 8 | herbicidal action (damage rating 0-10), Sida [2]: 0

SMILES: C#CCC(c1c(F)cccc1F)S(=O)(=O)C1=NOC(C)(C)C1 (centres unmarked) [Compound No. 1.02]
herbicidal action (damage rating 0-10), Agrostis [1]: 8 | herbicidal action (damage rating 0-10), Digitaria [1]: 9 | herbicidal action (damage rating 0-10), Poa [1]: 5 | herbicidal action (damage rating 0-10), Setaria [1]: 9 | herbicidal action (damage rating 0-10), Panicum [2]: 6 | herbicidal action (damage rating 0-10), Setaria [2]: 3 | herbicidal action (damage rating 0-10), Sida [2]: 0 | herbicidal damage rating, Abutilon [3]: 0 | herbicidal damage rating, Amaranthus [3]: 9 | herbicidal damage rating, Digitaria [3]: 6 | herbicidal damage rating, Panicum [3]: 10 | herbicidal damage rating, Setaria [3]: 7 | herbicidal damage rating, Sida [3]: 5

melting point: 95 °C
SMILES: CC1(C)CC(S(=O)(=O)C(Cc2ccc(F)cc2)c2c(F)cccc2F)=NO1 (centres unmarked) [Compound No. 1.05, 3-[1-(2,6-difluoro-phenyl)-2-(4-fluoro-phenyl)-ethanesulfonyl]-5,5-dimethyl-4,5-dihydroisoxazole]

SMILES: CCOC(=O)CCC(c1c(F)cccc1F)S(=O)(=O)C1=NOC(C)(C)C1 (centres unmarked) [Compound No. 1.08, 4-(2,6-difluoro-phenyl)-4-(5,5-dimethyl-4,5-dihydroisoxazole-3-sulfonyl)-butyric acid ethyl ester]
herbicidal action (damage rating 0-10), Agrostis [1]: 7 | herbicidal action (damage rating 0-10), Digitaria [1]: 8 | herbicidal action (damage rating 0-10), Poa [1]: 9 | herbicidal action (damage rating 0-10), Setaria [1]: 3

SMILES: COC(=O)C(Cl)(c1c(F)cccc1F)S(=O)(=O)C1=NOC(C)(C)C1 (centres unmarked) [Compound No. 1.14, chloro-(2,6-difluorophenyl)-(5,5-dimethyl-4,5-dihydroisoxazole-3-sulfonyl)-acetic acid methyl ester]
herbicidal action (damage rating 0-10), Agrostis [1]: 10 | herbicidal action (damage rating 0-10), Digitaria [1]: 9 | herbicidal action (damage rating 0-10), Poa [1]: 10 | herbicidal action (damage rating 0-10), Setaria [1]: 10 | herbicidal action (damage rating 0-10), Amaranthus [2]: 8 | herbicidal action (damage rating 0-10), Digitaria [2]: 9 | herbicidal action (damage rating 0-10), Panicum [2]: 9 | herbicidal action (damage rating 0-10), Setaria [2]: 9 | herbicidal action (damage rating 0-10), Sida [2]: 6 | herbicidal damage rating, Abutilon [3]: 4 | herbicidal damage rating, Digitaria [3]: 3 | herbicidal damage rating, Panicum [3]: 0 | herbicidal damage rating, Setaria [3]: 3 | herbicidal damage rating, Sida [3]: 3

SMILES: CC1(C)CC(S(=O)(=O)C2(c3c(F)cccc3F)CC2(Cl)Cl)=NO1 (centres unmarked) [Compound No. 1.45, 3-[2,2-dichloro-1-(2,6-difluoro-phenyl)-cyclopropanesulfonyl]-5,5-dimethyl-4,5-dihydroisoxazole]
herbicidal action (damage rating 0-10), Agrostis [1]: 7 | herbicidal action (damage rating 0-10), Digitaria [1]: 8 | herbicidal action (damage rating 0-10), Poa [1]: 10 | herbicidal action (damage rating 0-10), Setaria [1]: 6

SMILES: COCC(=O)C(c1c(F)cccc1F)S(=O)(=O)C1=NOC(C)(C)C1 (centres unmarked) [Compound No. 1.59]
herbicidal action (damage rating 0-10), Agrostis [1]: 9 | herbicidal action (damage rating 0-10), Digitaria [1]: 8 | herbicidal action (damage rating 0-10), Poa [1]: 10 | herbicidal action (damage rating 0-10), Setaria [1]: 9

SMILES: CC1(C)CC(S(=O)(=O)C(F)(Br)c2c(F)cccc2F)=NO1 (centres unmarked) [Compound No. 1.63, 3-[bromo-(2,6-difluorophenyl)-fluoro-methanesulfonyl]-5,5-dimethyl-4,5-dihydroisoxazole]
herbicidal action (damage rating 0-10), Amaranthus [2]: 10 | herbicidal action (damage rating 0-10), Digitaria [2]: 10 | herbicidal action (damage rating 0-10), Panicum [2]: 10 | herbicidal action (damage rating 0-10), Setaria [2]: 10 | herbicidal action (damage rating 0-10), Sida [2]: 8 | herbicidal damage rating, Abutilon [3]: 4 | herbicidal damage rating, Amaranthus [3]: 3 | herbicidal damage rating, Digitaria [3]: 7 | herbicidal damage rating, Panicum [3]: 7 | herbicidal damage rating, Setaria [3]: 7 | herbicidal damage rating, Sida [3]: 4

SMILES: CC1(C)CC(S(=O)(=O)C(c2c(F)cccc2F)C(F)(F)F)=NO1 (centres unmarked) [Compound No. 1.113, 3-[1-(2,6-difluoro-phenyl)-2,2,2-trifluoro-ethanesulfonyl]-5,5-dimethyl-4,5-dihydroisoxazole]
herbicidal action (damage rating 0-10), Amaranthus [2]: 8 | herbicidal action (damage rating 0-10), Digitaria [2]: 9 | herbicidal action (damage rating 0-10), Panicum [2]: 10 | herbicidal action (damage rating 0-10), Setaria [2]: 10 | herbicidal action (damage rating 0-10), Sida [2]: 0 | herbicidal damage rating, Abutilon [3]: 2 | herbicidal damage rating, Amaranthus [3]: 0 | herbicidal damage rating, Digitaria [3]: 8 | herbicidal damage rating, Panicum [3]: 3 | herbicidal damage rating, Setaria [3]: 7 | herbicidal damage rating, Sida [3]: 4
